# According to patent EP1096022B1, “Immuno-stimulating polysaccharide substance from Phellinus spp. strain and use thereof” (KOREA INSTITUTE OF SCIENCE AND TECHNOLOGY, priority 1999, dated 2001):
# Tests used:
# [1] = system: B16F10 cutaneous cancer cells; assay: Viability of mice implanted intraperitoneally with B16F10 cells, co-administration with chemotherapeutics, 60 days; format: in vivo, mouse; conditions: for Proportion (%): untreated = 100
# Text: (§1) A homogeneous plantation test system of B 16F 10 cutaneous cancer cell was utilized for the measurement of the anticancer activity upon co-administration of the polysaccharide substance and adriamycin. The cutaneous cancer cells were implanted in the peritoneal cavity of mice. Adriamycin was peritoneally administered to the mice for 12 days after tumor implantation while the polysaccharide substance was peritoneally administered from a week before the implantation to 12 days after the implantation. For 60 days, the viability of the mice was recorded everyday. Adriamycin was used at such low amounts as not to damage the mice.
# The cutaneous cancer cells were implanted in the peritoneal cavity of mice. […] For 60 days, the viability of the mice was recorded everyday. Mitomycin C was used at such low amounts as not to damage the mice.
# The cutaneous cancer cells were implanted in the peritoneal cavity of mice. […] For 60 days, the viability of the mice was recorded everyday. Cisplastin was used at such low amounts as not to damage the mice.
# as §1, with “B16F10” for “B 16F 10”, “5-fluoro uracil, as in the above experiments.” for “adriamycin.”, “5-fluoro uracil” for “Adriamycin”
# [2] = system: NCl-H23 lung cancer cells; assay: Human lung cancer cells implanted subcutaneously in nude mice, tumor size and weight; format: in vivo
# Protocol: The activity of the polysaccharide substance against human cancer was assayed using NCl-H23, a lung cancer cell line. Nude mice were subcutaneously implanted with NCl-H23 lung cancer cells. The polysaccharide substance and adriamycin were peritoneally administered to the nude mice for 12 days after cancer cell implantation. […] Because the nude mice were devoid of T-cells, their immunological competency was generally attributed to the activity of natural killer cells or macrophage cells. Therefore, the immunological enhancement obtained when administering the polysaccharide substance was meditated through these two type cells.
# [3] = system: B16F10 cutaneous cancer cells; assay: Lung metastasis after tail-vein implantation of B16F10 cells, spots counted on the 14th day; format: in vivo, C57BL/6 mice
# Text: In order to test the polysaccharide substance for the prevention of cancer metastasis, B16F10 cutaneous cancer cells were implanted in the tail veins of C57BL/6 mice. On the 14th day after implantation, the lungs were isolated from the mice to investigate whether or to what extent cancer metastasis occurred. Adriamycin was peritoneally administered to the mice for 12 days after tumor implantation while the polysaccharide substance was peritoneally administered from a week before the implantation to 12 days after the implantation. […]
# [4] = system: B16F10 mouse cutaneous cancer cells; assay: Direct cytotoxicity, sulforhodamin B method
# [5] = system: NCl-H23 human lung cancer cells; assay: Direct cytotoxicity, sulforhodamin B method
# [6] = 0.3 µg/mL, 2nd day after treatment
smiles,measurement,setting,value
"CO[C@@]12[C@H](COC(N)=O)C3=C(C(=O)C(C)=C(N)C3=O)N1C[C@@H]1N[C@@H]12 [M.C, Mitomycin C]",Nos. of viable mice on the 60th day,[1]; mitomycin C 0.2 mg/kg alone,0/10
same,Avg. Viability,[1]; mitomycin C 0.6 mg/kg alone,38.0 days
same,Nos. of viable mice on the 60th day,[1]; mitomycin C 0.6 mg/kg alone,1/10
"O=c1[nH]cc(F)c(=O)[nH]1 [5-FU, 5-fluoro uracil]",Avg. Viability,[1]; 5-fluorouracil 1 mg/kg alone,33.0 days
same,Nos. of viable mice on the 60th day,[1]; 5-fluorouracil 1 mg/kg alone,0/10
same,Avg. Viability,"[1]; 5-fluorouracil 1 mg/kg alone, listed as 5-Fluorouracil",34.2 days
same,Proportion (%),[1]; 5-fluorouracil 1 mg/kg alone,187.8%
same,Avg. Viability,[1]; 5-fluorouracil 3 mg/kg alone,40.5 days
same,Nos. of viable mice on the 60th day,[1]; 5-fluorouracil 3 mg/kg alone,2/10
same,Avg. Viability,"[1]; 5-fluorouracil 3 mg/kg alone, listed as 5-fluorouracil",40.2 days
same,Proportion (%),[1]; 5-fluorouracil 3 mg/kg alone,222%
"N.N.[Cl][Pt][Cl] [C.P, Cisplatin]",Avg. Viability,[1]; cisplatin 0.5 mg/kg alone,33.0 days
same,Nos. of viable mice on the 60th day,[1]; cisplatin 0.5 mg/kg alone,0/10
same,Avg. Viability,"[1]; cisplatin 0.5 mg/kg alone, listed as Cisplatin",33 days
same,Proportion (%),[1]; cisplatin 0.5 mg/kg alone,182.3%
same,Avg. Viability,[1]; cisplatin 1.5 mg/kg alone,40.5 days
same,Nos. of viable mice on the 60th day,[1]; cisplatin 1.5 mg/kg alone,2/10
same,Proportion (%),[1]; cisplatin 1.5 mg/kg alone,223.8%
COc1cccc2c1C(=O)c1c(O)c3c(c(O)c1C2=O)C[C@@](O)(C(=O)CO)C[C@@H]3O[C@H]1C[C@H](N)[C@H](O)[C@H](C)O1 [Adriamycin],Avg. Viability,[1]; adriamycin 0.1 mg/kg alone,35.4 days
same,Nos. of viable mice on the 60th day,[1]; adriamycin 0.1 mg/kg alone,0/10
same,Proportion (%),[1]; adriamycin 0.1 mg/kg alone,195.6%
same,Avg. Viability,[1]; adriamycin 0.3 mg/kg alone,40.1 days
same,Nos. of viable mice on the 60th day,[1]; adriamycin 0.3 mg/kg alone,2/10
same,Proportion (%),[1]; adriamycin 0.3 mg/kg alone,240.9%
same,Cell size,"[2]; 14th day, 1mg/kg peritoneally for 12 days",12 mm^3
same,Cell size,"[2]; 17th day, 1mg/kg",27 mm^3
same,Cell size,"[2]; 18th day, 1mg/kg",34 mm^3
same,Cell size,"[2]; 19th day, 1mg/kg",33 mm^3
same,Final Cancer Weight,"[2]; 19th day, 1mg/kg",95
same,Nos. of Spots,[3]; adriamycin 1mg/kg alone,197
same,Nos. of Spots,[3]; adriamycin 3mg/kg alone,172
same,cell quantity (untreated = 100 %),[4]; [6],56%
same,cell quantity (untreated = 100 %),"[4]; 1 µg/mL, 2nd day",29%
same,cell quantity (untreated = 100 %),"[4]; 3 µg/mL, 2nd day",9%
same,cell quantity (untreated = 100 %),"[4]; 10 µg/mL, 2nd day",-10%
same,cell quantity (untreated = 100 %),"[4]; 30 µg/mL, 2nd day",-10%
same,cytotoxicity to cancer cells,[4]; overall statement,potent cytotoxicity
same,cell quantity (untreated = 100 %),[5]; [6],100%
same,cell quantity (untreated = 100 %),"[5]; 1 µg/mL, 2nd day",71%
same,cell quantity (untreated = 100 %),"[5]; 3 µg/mL, 2nd day",39%
same,cell quantity (untreated = 100 %),"[5]; 10 µg/mL, 2nd day",7%
same,cell quantity (untreated = 100 %),"[5]; 30 µg/mL, 2nd day",-1%
same,cytotoxicity to cancer cells,[5]; overall statement,potent cytotoxicity
